Where two headings read alike, the source gives them in different places.
How the values were obtained:
T-cell [1] = experiment: CD25 cell surface staining on T-cells co-stimulated with anti-CD3 and anti-CD28 antibody (Biological Example 2); assay type: cell-based, human; conditions: Homo sapiens, T-cell, primary human total T-cells, baseline = anti-CD3/anti-CD28 stimulated cells without inhibitor, read-out: CD25 staining, Anti-CD3/Anti-CD28 stimulation, fold change over baseline; for fold induction at 0.3 µM: 0.3 μM compound; for fold induction at 1 µM: 1 μM compound; for fold induction at 4 µM: 4 μM compound
In short: (§1)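 No assay protocol given; T-cells stimulated with anti-CD3 alone or anti-CD3 plus anti-CD28, with or without Cbl-b inhibitor. Activation read as IL-2 secretion or CD25 surface staining, expressed as fold over baseline from uninhibited cells […].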

T-cell [2] = experiment: IL-2 secretion from T-cells stimulated with anti-CD3 antibody alone (Biological Example 2); assay type: cell-based; conditions: primary human total T-cells, read-out: IL-2 secretion, Anti-CD3 stimulation, fold change over baseline; for fold induction at 1 µM: 1 μM compound; for fold induction at 8 µM: 8 μM compound
T-cell [3] = experiment: IL-2 secretion from T-cells co-stimulated with anti-CD3 and anti-CD28 antibody (Biological Example 2); assay type: cell-based, human; conditions: Homo sapiens, T-cell, primary human total T-cells, baseline = anti-CD3/anti-CD28 stimulated cells without inhibitor, read-out: IL-2 secretion, Anti-CD3/Anti-CD28 stimulation, fold change over baseline; for fold induction at 0.3 µM: 0.3 μM compound; for fold induction at 1 µM: 1 μM compound; for fold induction at 4 µM: 4 μM compound
In short: as §1

T-cell [4] = experiment: CD25 cell surface staining on T-cells stimulated with anti-CD3 antibody alone (Biological Example 2); assay type: cell-based; conditions: primary human total T-cells, baseline = anti-CD3/anti-CD28 stimulated cells without inhibitor, read-out: CD25 staining, Anti-CD3 stimulation, fold change over baseline; for fold induction at 1 µM: 1 μM compound; for fold induction at 8 µM: 8 μM compound
Cbl-b [5] = molecular target: T1, Cbl-b (Homo sapiens, UniProt Q13191); experiment: Cbl-b activity assay (Cbl-b inhibition assay), TR-FRET of Cbl-b interaction with UbcH5B-Ub; assay type: biochemical; conditions: assay buffer with 100 mM NaCl, 60 nM Src kinase; read-out: Cbl-b activity IC50
T1 sequence (Q13191 36-427): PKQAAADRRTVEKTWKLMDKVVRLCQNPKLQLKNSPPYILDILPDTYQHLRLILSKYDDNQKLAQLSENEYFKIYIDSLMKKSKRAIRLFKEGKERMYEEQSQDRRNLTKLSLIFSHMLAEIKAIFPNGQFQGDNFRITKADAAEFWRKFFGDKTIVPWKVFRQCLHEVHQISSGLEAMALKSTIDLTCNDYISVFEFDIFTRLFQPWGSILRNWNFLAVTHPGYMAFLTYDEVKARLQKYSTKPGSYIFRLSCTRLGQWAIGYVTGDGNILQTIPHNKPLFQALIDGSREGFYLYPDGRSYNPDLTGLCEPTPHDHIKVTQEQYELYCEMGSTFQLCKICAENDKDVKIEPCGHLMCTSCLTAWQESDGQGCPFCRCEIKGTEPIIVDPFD
In short: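 TR-FRET readout of Cbl-b binding to Bodipy-fluorescein N-terminally labeled Ub conjugated to UbcH5B C85K, measured with compound present. After compound incubation, 60 nM Src kinase with 1 mM ATP and 5 mM MgCl2 (final) was added for 1.5 h, then a further 1 h incubation; asterisked values used 50 mM NaCl buffer and 30 nM Src.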

Cbl-b [6] = molecular target: T1, Cbl-b; experiment: Cbl-b inhibition assay (Cbl-b activity assay, FRET, Biological Example 1; 100 mM NaCl, 60 nM Src kinase); assay type: biochemical; conditions: upper bound stated in text lists; read-out: IC50 values in the Cbl-b inhibition assay of Biological Example 1
In short: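 Inhibition is read as loss of FRET signal. The signal arises when Src-phosphorylated, N-terminal biotinylated Avi-Cbl-b (captured by streptavidin-terbium) binds UbcH5B carrying covalently linked Bodipy-Fluorescein-tagged ubiquitin.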

primary human NK cells = experiment: NK cell activation assessed by cytokine secretion (coculture with K562 NucRed target cells); assay type: cell-based
Protocol: Peripheral blood mononuclear cells (PBMC) were obtained either: 1) by using Ficoll-Paque™ (GE Healthcare) for separation of peripheral blood hematopoietic cells from buffy coats of healthy human donors; or 2) directly from LeukoPak donations. […] The cells were cultured overnight with IL-2 (60 ng/mL) at 37° C. 5% CO2. Cbl-b inhibitors were added 1 hour prior to stimulation and incubated at 37° C. 5% CO2 at a specific concentration (e.g., 10 μM, 1 μM, or 0.1 μM) with a final DMSO concentration of <0.1%. NK cells were co-cultured with target cells that were engineered to have a red nucleus (K562 NucRed) measurable by flow cytometry. […] The cells were mixed at the indicated ratios (e.g., 5:1, 1:1, or 1:5) of NK (effector cells) to K562 NucRed (target cells) for 6 hours. Cell free supernatants were collected and analyzed for cytokine secretion (e.g. TNFα, IFNγ, or MIP1β) by ELISA or Luminex multiplex kits following the manufacturer's protocol. IFNγ secretion was assessed using an R&D Systems ELISA kit (Catalog #DY285), TNFα secretion was assessed using an R&D Systems ELISA kit (Catalog #DY210), and MIP1β secretion was assessed using an R&D Systems ELISA kit (Catalog #DY271).
Readouts were reported as fold change over baseline. Baseline for this study was the measurement obtained from primary human NK effector cells cocultured with K562 NucRed target cells in the absence of a Cbl-b inhibitor. For NK cells cocultured with K562 NucRed cells, changes greater than 2.0-fold over baseline for cytokine secretion were considered a positive response (Table 10a and 10b).

[7] = K562, 1:1 E/T, read-out: IFNγ secretion
[8] = K562, 1:1 E/T, read-out: MIP1β secretion
[9] = K562, 1:1 E/T, read-out: TNFα secretion
[10] = K562, 5:1 E/T, read-out: IFNγ secretion
[11] = K562, 5:1 E/T, read-out: MIP1β secretion
[12] = K562, 5:1 E/T, read-out: TNFα secretion

C[C@@H](c1cccc(N2Cc3c(cccc3C(F)(F)F)C2=O)c1)[C@H](F)c1nncn1C (racemic) [Compound 473, 2-(3-((1S,2S and 1R,2R)-1-fluoro-1-(4-methyl-4H-1,2,4-triazol-3-yl)propan-2-yl)phenyl)-4-(trifluoromethyl)isoindolin-1-one]
fold induction at 0.3 µM (T-cell [1]): 1.01 to 1.3 | fold induction at 1 µM (T-cell [1]): 1.01 to 1.3 | fold induction at 4 µM (T-cell [1]): 1.01 to 1.3 | fold induction at 1 µM (T-cell [2]): 0.051 to 0.1 | fold induction at 8 µM (T-cell [2]): 0.151 to 0.2 | fold induction at 0.3 µM (T-cell [3]): 1.01 to 2.5 | fold induction at 1 µM (T-cell [3]): 1.01 to 2.5 | fold induction at 4 µM (T-cell [3]): 2.51 to 5 | fold induction at 1 µM (T-cell [4]): 0.601 to 0.8 | fold induction at 8 µM (T-cell [4]): > 1 | IC50 (Cbl-b [5]): 301 to 1000 nM

CN1CC[C@@H](O)[C@@H](Cc2cc3c(c(C(F)(F)F)c2)CN(c2cccc(C4(Cc5nncn5C)COC4)c2)C3=O)C1 (racemic) [Compound 532, 6-(((cis)-4-hydroxy-1-methylpiperidin-3-yl)methyl)-2-(3-(3-((4-methyl-4H-1,2,4-triazol-3-yl)methyl)oxetan-3-yl)phenyl)-4-(trifluoromethyl)isoindolin-1-one]
IC50 (Cbl-b [6]): ≤ 100 nM | fold induction at 0.3 µM (T-cell [1]): 1.01 to 1.3 | fold induction at 1 µM (T-cell [1]): 1.01 to 1.3 | fold induction at 1 µM (T-cell [2]): 0.101 to 0.15 | fold induction at 0.3 µM (T-cell [3]): 1.01 to 2.5 | fold induction at 1 µM (T-cell [3]): 2.51 to 5 | fold induction at 1 µM (T-cell [4]): 0.801 to 1 | IC50 (Cbl-b [5]): < 100 nM

C[C@@H](c1cccc(N2Cc3c(cccc3C(F)(F)F)C2=O)c1)C(F)c1nncn1C (stereo in doubt) [Compound 474, 2-(3-((1S, 2S)-1-fluoro-1-(4-methyl-4H-1,2,4-triazol-3-yl)propan-2-yl)phenyl)-4-(trifluoromethyl)isoindolin-1-one]
fold induction at 0.3 µM (T-cell [1]): 1.01 to 1.3 | fold induction at 1 µM (T-cell [1]): 1.01 to 1.3 | fold induction at 4 µM (T-cell [1]): 1.01 to 1.3 | fold induction at 1 µM (T-cell [2]): 0.051 to 0.1 | fold induction at 8 µM (T-cell [2]): > 0.201 | fold induction at 0.3 µM (T-cell [3]): 1.01 to 2.5 | fold induction at 1 µM (T-cell [3]): 1.01 to 2.5 | fold induction at 4 µM (T-cell [3]): 2.51 to 5 | fold induction at 1 µM (T-cell [4]): 0.601 to 0.8 | fold induction at 8 µM (T-cell [4]): > 1

Cn1cnnc1C(F)[C@](C)(F)c1cccc(N2Cc3c(cccc3C(F)(F)F)C2=O)c1 (stereo in doubt) [Compound 478a, 2-(3-((1S,2R)-1,2-difluoro-1-(4-methyl-4H-1,2,4-triazol-3-yl)propan-2-yl)phenyl)-4-(trifluoromethyl)isoindolin-1-one]
fold induction at 0.3 µM (T-cell [1]): < 1 | fold induction at 1 µM (T-cell [1]): < 1 | fold induction at 4 µM (T-cell [1]): 1.01 to 1.3 | fold induction at 1 µM (T-cell [2]): < 0.05 | fold induction at 8 µM (T-cell [2]): 0.051 to 0.1 | fold induction at 0.3 µM (T-cell [3]): < 1 | fold induction at 1 µM (T-cell [3]): < 1 | fold induction at 4 µM (T-cell [3]): < 1 | fold induction at 1 µM (T-cell [4]): < 0.6 | fold induction at 8 µM (T-cell [4]): 0.601 to 0.8 | IC50 (Cbl-b [5]): 301 to 1000 nM

Cn1cnnc1[C@@H](F)[C@](C)(F)c1cccc(N2Cc3c(cc(C4CC4)cc3C(F)(F)F)C2=O)c1 (stereo in doubt) [Compound 482, 6-cyclopropyl-2-[3-[(1R,2R)-1,2-difluoro-1-(4-methyl-4H-1,2,4-triazol-3-yl)propan-2-yl]phenyl]-4-(trifluoromethyl)-2,3-dihydro-1H-isoindol-1-one]
fold induction at 0.3 µM (T-cell [1]): 1.01 to 1.3 | fold induction at 1 µM (T-cell [1]): 1.01 to 1.3 | fold induction at 4 µM (T-cell [1]): 1.01 to 1.3 | fold induction at 1 µM (T-cell [2]): 0.051 to 0.1 | fold induction at 8 µM (T-cell [2]): 0.051 to 0.1 | fold induction at 0.3 µM (T-cell [3]): < 1 | fold induction at 1 µM (T-cell [3]): 1.01 to 2.5 | fold induction at 4 µM (T-cell [3]): 1.01 to 2.5 | fold induction at 1 µM (T-cell [4]): 0.601 to 0.8 | fold induction at 8 µM (T-cell [4]): 0.801 to 1 | IC50 (Cbl-b [5]): 301 to 1000 nM

C[C@@H](Sc1nncn1C)c1cccc(NC(=O)c2ccc3ccccc3n2)c1 [Compound 9b, (R)-N-(3-(1-((4-methyl-4H-1,2,4-triazol-3-yl)thio)ethyl)phenyl)quinoline-2-carboxamide]
fold induction at 1 µM (primary human NK cells; [7]): < 1 | fold induction at 1 µM (primary human NK cells; [8]): 1.01 to 2 | fold induction at 1 µM (primary human NK cells; [9]): < 1 | fold induction at 10 µM (primary human NK cells; [7]): < 1 | fold induction at 10 µM (primary human NK cells; [8]): < 1 | fold induction at 10 µM (primary human NK cells; [9]): < 1 | fold induction at 1 µM (primary human NK cells; [10]): < 1 | fold induction at 1 µM (primary human NK cells; [11]): < 1 | fold induction at 1 µM (primary human NK cells; [12]): < 1 | fold induction at 10 µM (primary human NK cells; [10]): < 1 | fold induction at 10 µM (primary human NK cells; [11]): < 1 | fold induction at 10 µM (primary human NK cells; [12]): < 1

Cn1cnnc1C(F)(F)[C@](C)(F)c1cccc(N2Cc3c(cc(C(=O)N4CC(C(F)F)C4)cc3C(F)(F)F)C2=O)c1 [Compound 439, (R)-6-(3-(difluoromethyl)azetidine-1-carbonyl)-2-(3-(1,1,2-trifluoro-1-(4-methyl-4H-1,2,4-triazol-3-yl)propan-2-yl)phenyl)-4-(trifluoromethyl)isoindolin-1-one]
fold induction at 0.3 µM (T-cell [1]): 1.01 to 1.3 | fold induction at 1 µM (T-cell [1]): 1.01 to 1.3 | fold induction at 4 µM (T-cell [1]): 1.01 to 1.3 | fold induction at 1 µM (T-cell [2]): 0.051 to 0.1 | fold induction at 8 µM (T-cell [2]): 0.051 to 0.1 | fold induction at 0.3 µM (T-cell [3]): 1.01 to 2.5 | fold induction at 1 µM (T-cell [3]): 1.01 to 2.5 | fold induction at 4 µM (T-cell [3]): 1.01 to 2.5 | fold induction at 1 µM (T-cell [4]): 0.601 to 0.8 | fold induction at 8 µM (T-cell [4]): 0.801 to 1 | IC50 (Cbl-b [5]): 301 to 1000 nM

Cn1cnnc1C(F)(F)[C@@](C)(F)c1cccc(N2Cc3c(cc(CN4CC[C@H](F)C4)cc3C(F)(F)F)C2=O)c1 [Compound 449, 6-(((S)-3-fluoropyrrolidin-1-yl)methyl)-2-(3-((S)-1,1,2-trifluoro-1-(4-methyl-4H-1,2,4-triazol-3-yl)propan-2-yl)phenyl)-4-(trifluoromethyl)isoindolin-1-one]
fold induction at 0.3 µM (T-cell [1]): < 1 | fold induction at 1 µM (T-cell [1]): < 1 | fold induction at 4 µM (T-cell [1]): 1.01 to 1.3 | fold induction at 1 µM (T-cell [2]): 0.051 to 0.1 | fold induction at 8 µM (T-cell [2]): 0.051 to 0.1 | fold induction at 0.3 µM (T-cell [3]): < 1 | fold induction at 1 µM (T-cell [3]): < 1 | fold induction at 4 µM (T-cell [3]): 1.01 to 2.5 | fold induction at 1 µM (T-cell [4]): 0.601 to 0.8 | fold induction at 8 µM (T-cell [4]): 0.801 to 1 | IC50 (Cbl-b [5]): 301 to 1000 nM

CC(Cc1nncn1C)c1cc(C2CCC2)cc(N2Cc3c(cccc3C(F)(F)F)C2=O)c1 (stereo not drawn) [Compound 476, 2-(3-cyclobutyl-5-(1-(4-methyl-4H-1,2,4-triazol-3-yl)propan-2-yl)phenyl)-4-(trifluoromethyl)isoindolin-1-one]
fold induction at 0.3 µM (T-cell [1]): 1.01 to 1.3 | fold induction at 1 µM (T-cell [1]): 1.01 to 1.3 | fold induction at 4 µM (T-cell [1]): 1.01 to 1.3 | fold induction at 1 µM (T-cell [2]): 0.051 to 0.1 | fold induction at 8 µM (T-cell [2]): 0.051 to 0.1 | fold induction at 0.3 µM (T-cell [3]): 1.01 to 2.5 | fold induction at 1 µM (T-cell [3]): 1.01 to 2.5 | fold induction at 4 µM (T-cell [3]): 1.01 to 2.5 | fold induction at 1 µM (T-cell [4]): 0.601 to 0.8 | fold induction at 8 µM (T-cell [4]): 0.801 to 1 | IC50 (Cbl-b [5]): 301 to 1000 nM

Reference: patent US20220324835A1 (Nurix Therapeutics, Inc., priority 2018, published 2022)
